IC50 data for 25 compounds are collected here from patent publication US9493478B2, “Fused ring compound containing furan or salt thereof and pharmaceutical composition comprising same” (YUHAN CORPORATION, priority 2012, dated 2016).

Common to all, as to format: biochemical
The target in one experiment is PI3Kδ (p110δ/p85α)(h) (Homo sapiens, UniProt O00329). The experiment is described as follows: Assay for phosphatidylinositol 3-kinase delta (PI3Kδ) activity, PI3K-HTRF kit. To be noted: TR-FRET; enzyme 0.725 μg/ml, 10 μM PIP2, 10 μM ATP. A general note: TR-FRET usually uses a lanthanide donor and a delayed reading to cut background.
The target in a further experiment is PI3Kα (p110α/p85α)(h) (Homo sapiens, UniProt P42336). The experiment can be described thus: Assay for phosphatidylinositol 3-kinase alpha (PI3Kα) activity, PI3K-HTRF kit. Conditions: TR-FRET; enzyme 0.3625 μg/ml, 10 μM PIP2, 10 μM ATP.
For another experiment, the target named is PI3K β (p110β/p85α)(h) (Homo sapiens, UniProt P42338). The experiment can be described thus: Assay for phosphatidylinositol 3-kinase beta (PI3Kβ) activity, PI3K-HTRF kit. Conditions: TR-FRET; enzyme 0.725 μg/ml, 10 μM PIP2, 10 μM ATP.
In a further experiment the target is PI3Kγ (p120γ)(h) (Homo sapiens, UniProt P48736). The experiment can be described thus: Assay for phosphatidylinositol 3-kinase gamma (PI3Kγ) activity, PI3K-HTRF kit. Conditions: TR-FRET; enzyme 1.45 μg/ml, 10 μM PIP2, 10 μM ATP. In short, it runs like this: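 Recombinant PI3Kγ (1.45 μg/ml final) preincubated ~10 min with compound, then reacted with 10 μM PIP2 and 10 μM ATP for 90 min at room temperature. PIP3 detected by HTRF (biotin-PIP3/Eu-PH domain/APC), 665/620 nm ratio after 6 h; IC50 from inhibition relative to controls.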

SMILES strings stand for the structures.

Usually IC50 stands for the concentration that inhibits the measured activity by half. High values mean weaker potency in that assay, low ones greater potency in that assay.

Chain of PI3K β (p110β/p85α)(h) (P42338 whole entry, the tested form may be a part): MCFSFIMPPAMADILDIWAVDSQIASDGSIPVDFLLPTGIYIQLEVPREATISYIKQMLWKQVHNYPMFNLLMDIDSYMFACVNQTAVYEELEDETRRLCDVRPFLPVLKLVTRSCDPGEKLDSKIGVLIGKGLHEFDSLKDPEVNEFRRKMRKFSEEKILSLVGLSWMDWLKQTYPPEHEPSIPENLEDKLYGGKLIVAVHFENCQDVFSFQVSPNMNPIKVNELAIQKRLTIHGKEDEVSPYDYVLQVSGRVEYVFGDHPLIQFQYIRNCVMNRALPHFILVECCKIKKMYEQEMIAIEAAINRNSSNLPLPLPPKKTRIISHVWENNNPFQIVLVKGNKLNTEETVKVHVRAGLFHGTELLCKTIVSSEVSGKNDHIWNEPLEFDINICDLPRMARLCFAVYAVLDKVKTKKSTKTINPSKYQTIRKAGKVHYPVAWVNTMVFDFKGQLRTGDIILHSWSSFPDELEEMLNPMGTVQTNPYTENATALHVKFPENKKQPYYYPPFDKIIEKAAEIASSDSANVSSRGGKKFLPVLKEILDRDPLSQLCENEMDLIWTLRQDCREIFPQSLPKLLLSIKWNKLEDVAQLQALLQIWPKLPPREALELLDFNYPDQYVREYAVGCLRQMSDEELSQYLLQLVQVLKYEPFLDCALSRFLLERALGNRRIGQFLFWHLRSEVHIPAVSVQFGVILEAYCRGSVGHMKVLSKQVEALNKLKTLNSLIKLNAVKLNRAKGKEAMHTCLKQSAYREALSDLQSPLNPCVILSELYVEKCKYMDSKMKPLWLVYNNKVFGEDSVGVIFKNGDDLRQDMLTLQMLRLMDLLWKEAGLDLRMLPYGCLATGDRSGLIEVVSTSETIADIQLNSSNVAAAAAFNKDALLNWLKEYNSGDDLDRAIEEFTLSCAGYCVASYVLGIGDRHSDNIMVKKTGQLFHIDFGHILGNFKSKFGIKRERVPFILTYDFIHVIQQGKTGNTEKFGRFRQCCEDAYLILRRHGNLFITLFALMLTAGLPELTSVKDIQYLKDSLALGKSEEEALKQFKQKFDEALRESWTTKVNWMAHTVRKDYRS
Chain of PI3K β (p110β/p85α)(h) (P27986 whole entry partner, the tested form may be a part): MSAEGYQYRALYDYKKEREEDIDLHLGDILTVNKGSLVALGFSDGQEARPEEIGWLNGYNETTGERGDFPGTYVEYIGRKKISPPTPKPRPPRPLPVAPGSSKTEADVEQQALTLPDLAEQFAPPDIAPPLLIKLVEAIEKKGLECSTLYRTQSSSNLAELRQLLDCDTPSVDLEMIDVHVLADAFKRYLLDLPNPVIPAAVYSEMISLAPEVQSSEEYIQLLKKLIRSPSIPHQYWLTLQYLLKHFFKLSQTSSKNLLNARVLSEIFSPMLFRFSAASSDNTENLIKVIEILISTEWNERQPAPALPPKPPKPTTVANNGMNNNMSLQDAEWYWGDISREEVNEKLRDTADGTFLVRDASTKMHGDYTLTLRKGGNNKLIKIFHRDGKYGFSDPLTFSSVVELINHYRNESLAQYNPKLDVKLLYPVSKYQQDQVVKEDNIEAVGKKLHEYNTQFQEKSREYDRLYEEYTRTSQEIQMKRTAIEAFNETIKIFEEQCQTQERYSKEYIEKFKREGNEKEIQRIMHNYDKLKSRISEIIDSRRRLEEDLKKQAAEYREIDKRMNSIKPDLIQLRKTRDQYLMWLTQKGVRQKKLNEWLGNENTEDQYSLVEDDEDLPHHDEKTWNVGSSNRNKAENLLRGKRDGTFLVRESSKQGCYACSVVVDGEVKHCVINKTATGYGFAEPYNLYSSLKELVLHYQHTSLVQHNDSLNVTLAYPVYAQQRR
Chain of PI3Kα (p110α/p85α)(h) (P42336 whole entry): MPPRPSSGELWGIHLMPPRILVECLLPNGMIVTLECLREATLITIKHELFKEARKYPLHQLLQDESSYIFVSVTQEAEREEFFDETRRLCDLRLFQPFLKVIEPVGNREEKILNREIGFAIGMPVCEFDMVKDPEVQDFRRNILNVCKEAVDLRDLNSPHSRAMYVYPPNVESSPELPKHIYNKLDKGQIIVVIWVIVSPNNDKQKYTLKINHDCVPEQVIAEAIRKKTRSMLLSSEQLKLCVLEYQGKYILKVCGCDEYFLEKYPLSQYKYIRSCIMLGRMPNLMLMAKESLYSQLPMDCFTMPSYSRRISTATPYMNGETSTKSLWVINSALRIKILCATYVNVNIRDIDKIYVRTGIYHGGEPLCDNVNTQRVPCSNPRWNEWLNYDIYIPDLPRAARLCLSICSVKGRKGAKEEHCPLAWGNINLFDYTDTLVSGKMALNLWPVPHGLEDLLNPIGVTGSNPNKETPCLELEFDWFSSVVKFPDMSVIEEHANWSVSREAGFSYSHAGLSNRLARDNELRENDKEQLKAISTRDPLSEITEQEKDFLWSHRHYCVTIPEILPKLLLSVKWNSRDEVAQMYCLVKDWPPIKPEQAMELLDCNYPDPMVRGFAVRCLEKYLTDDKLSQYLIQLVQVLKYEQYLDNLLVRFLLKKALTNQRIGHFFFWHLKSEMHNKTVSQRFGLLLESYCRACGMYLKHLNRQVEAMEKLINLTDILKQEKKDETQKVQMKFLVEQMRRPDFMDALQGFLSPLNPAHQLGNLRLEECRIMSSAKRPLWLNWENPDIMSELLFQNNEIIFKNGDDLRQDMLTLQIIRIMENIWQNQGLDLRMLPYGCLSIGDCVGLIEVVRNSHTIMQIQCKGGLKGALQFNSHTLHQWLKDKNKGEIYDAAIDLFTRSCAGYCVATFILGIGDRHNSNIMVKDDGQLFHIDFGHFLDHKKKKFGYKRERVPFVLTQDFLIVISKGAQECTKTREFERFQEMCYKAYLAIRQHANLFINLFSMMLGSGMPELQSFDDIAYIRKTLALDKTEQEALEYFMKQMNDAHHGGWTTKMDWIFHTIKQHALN
Chain of PI3Kα (p110α/p85α)(h) (P27986 whole entry partner): as the sequence (P27986 whole entry partner, the tested form may be a part) above
Chain of PI3Kγ (p120γ)(h) (P48736 whole entry, the tested form may be a part): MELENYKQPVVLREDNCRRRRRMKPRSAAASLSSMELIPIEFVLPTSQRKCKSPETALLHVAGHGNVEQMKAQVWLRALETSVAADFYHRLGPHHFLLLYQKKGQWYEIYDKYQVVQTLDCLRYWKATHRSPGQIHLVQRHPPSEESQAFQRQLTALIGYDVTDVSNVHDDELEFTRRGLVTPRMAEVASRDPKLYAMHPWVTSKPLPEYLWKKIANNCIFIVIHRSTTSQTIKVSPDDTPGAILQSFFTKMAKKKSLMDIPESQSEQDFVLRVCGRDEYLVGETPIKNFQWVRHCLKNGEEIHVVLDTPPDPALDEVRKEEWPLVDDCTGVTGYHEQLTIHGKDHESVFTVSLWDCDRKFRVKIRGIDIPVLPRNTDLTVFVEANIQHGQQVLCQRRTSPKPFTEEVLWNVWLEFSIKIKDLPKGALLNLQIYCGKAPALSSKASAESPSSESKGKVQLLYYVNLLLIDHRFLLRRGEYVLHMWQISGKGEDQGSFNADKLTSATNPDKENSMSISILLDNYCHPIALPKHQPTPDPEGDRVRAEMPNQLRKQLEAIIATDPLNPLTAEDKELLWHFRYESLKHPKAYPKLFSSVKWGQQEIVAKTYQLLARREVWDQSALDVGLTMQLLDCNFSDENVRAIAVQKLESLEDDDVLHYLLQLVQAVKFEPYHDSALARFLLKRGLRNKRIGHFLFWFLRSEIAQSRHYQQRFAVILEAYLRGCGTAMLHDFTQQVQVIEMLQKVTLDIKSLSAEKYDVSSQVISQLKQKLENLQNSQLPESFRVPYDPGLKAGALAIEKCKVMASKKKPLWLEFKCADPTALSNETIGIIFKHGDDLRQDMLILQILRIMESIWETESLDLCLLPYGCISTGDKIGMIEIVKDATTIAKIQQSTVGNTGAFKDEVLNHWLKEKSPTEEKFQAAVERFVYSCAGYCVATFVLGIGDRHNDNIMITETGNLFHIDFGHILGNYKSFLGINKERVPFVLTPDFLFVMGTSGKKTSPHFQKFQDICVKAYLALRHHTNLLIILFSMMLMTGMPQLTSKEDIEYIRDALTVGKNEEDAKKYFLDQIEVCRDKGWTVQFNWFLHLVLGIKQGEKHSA
Chain of PI3Kδ (p110δ/p85α)(h) (O00329 whole entry): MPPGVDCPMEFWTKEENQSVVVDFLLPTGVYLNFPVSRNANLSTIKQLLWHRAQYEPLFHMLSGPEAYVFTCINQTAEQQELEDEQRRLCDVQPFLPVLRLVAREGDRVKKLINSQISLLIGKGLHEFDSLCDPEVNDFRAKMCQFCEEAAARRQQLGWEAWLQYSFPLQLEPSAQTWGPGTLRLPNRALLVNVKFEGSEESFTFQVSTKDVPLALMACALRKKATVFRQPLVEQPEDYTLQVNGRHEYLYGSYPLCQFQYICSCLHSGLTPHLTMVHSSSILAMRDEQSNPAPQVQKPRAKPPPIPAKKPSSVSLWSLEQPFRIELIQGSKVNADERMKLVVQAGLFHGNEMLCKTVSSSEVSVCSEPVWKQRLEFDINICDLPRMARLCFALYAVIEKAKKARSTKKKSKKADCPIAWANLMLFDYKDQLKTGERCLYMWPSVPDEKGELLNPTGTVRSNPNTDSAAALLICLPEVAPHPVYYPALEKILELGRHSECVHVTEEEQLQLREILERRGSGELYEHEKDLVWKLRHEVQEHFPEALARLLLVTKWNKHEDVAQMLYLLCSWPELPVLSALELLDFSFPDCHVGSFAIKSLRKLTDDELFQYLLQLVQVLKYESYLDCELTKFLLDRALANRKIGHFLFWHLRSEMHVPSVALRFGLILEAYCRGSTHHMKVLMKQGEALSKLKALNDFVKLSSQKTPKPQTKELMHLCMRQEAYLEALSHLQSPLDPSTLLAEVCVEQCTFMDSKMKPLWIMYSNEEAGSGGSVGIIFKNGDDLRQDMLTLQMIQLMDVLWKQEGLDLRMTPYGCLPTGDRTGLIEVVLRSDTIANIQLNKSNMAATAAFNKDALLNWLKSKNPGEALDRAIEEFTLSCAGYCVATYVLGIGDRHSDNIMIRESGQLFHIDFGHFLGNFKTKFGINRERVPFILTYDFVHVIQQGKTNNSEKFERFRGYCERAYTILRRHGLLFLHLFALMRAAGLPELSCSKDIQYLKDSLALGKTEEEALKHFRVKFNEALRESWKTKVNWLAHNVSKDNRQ
Chain of PI3Kδ (p110δ/p85α)(h) (P27986 whole entry partner): as the sequence (P27986 whole entry partner, the tested form may be a part) above

As for `O=C1NC(=O)/C(=C/c2cc3cncc(C#CC4CCCC4)c3o2)S1` [Example 435, (Z)-5-[{7-(Cyclopentylethynyl)furo[3,2-c]pyridin-2-yl}methylene]thiazolidine-2,4-dione], the half-maximal inhibitory concentration (IC50) on PI3Kδ (p110δ/p85α)(h) was found to be 4280 nM; on PI3Kα (p110α/p85α)(h), 58 nM; against PI3K β (p110β/p85α)(h), 4340 nM; against PI3Kγ (p120γ)(h), 48 nM.

Take `COc1ccc(C#Cc2cncc3cc(/C=C4\SC(=O)NC4=O)oc23)cc1` [Example 437, (Z)-5-([7-{(4-Methoxyphenyl)ethynyl}furo[3,2-c]pyridin-2-yl]methylene)thiazolidine-2,4-dione]: the IC50 was more than 10000 nM against PI3Kδ (p110δ/p85α)(h), 8 nM on PI3Kα (p110α/p85α)(h), more than 10000 nM at PI3K β (p110β/p85α)(h) and 9 nM at PI3Kγ (p120γ)(h).

For the compound `O=C1NC(=O)/C(=C/c2cc3cncc(C#Cc4cccc(C(F)(F)F)c4)c3o2)S1` [Example 441, (Z)-5-{(7-[{3-(Trifluoromethyl)phenyl}ethynyl]furo[3,2-c]pyridin-2-yl)methylene}thiazolidine-2,4-dione], the IC50 against PI3Kδ (p110δ/p85α)(h) was more than 10000 nM; against PI3Kα (p110α/p85α)(h) it was 2 nM; against PI3K β (p110β/p85α)(h), more than 10000 nM; at PI3Kγ (p120γ)(h), 10 nM.

For `COc1cc(C#Cc2cncc3cc(/C=C4\SC(=O)NC4=O)oc23)cc(OC)c1` [Example 450, (Z)-5-([7-{(3,5-Dimethoxyphenyl)ethynyl}furo[3,2-c]pyridin-2-yl]methylene)thiazolidine-2,4-dione], the IC50 at PI3Kδ (p110δ/p85α)(h) was more than 10000 nM; against PI3Kα (p110α/p85α)(h), 8 nM; at PI3K β (p110β/p85α)(h), 4650 nM; against PI3Kγ (p120γ)(h), 13 nM.

Regarding `Cc1cc(C#Cc2cncc3cc(/C=C4\SC(=O)NC4=O)oc23)ccc1F` [Example 453, (Z)-5-([7-{(4-Fluoro-3-methylphenyl)ethynyl}furo[3,2-c]pyridin-2-yl]methylene)thiazolidine-2,4-dione], the IC50 against PI3Kδ (p110δ/p85α)(h) was 801 nM; at PI3Kα (p110α/p85α)(h), 25 nM; against PI3K β (p110β/p85α)(h), 5070 nM; against PI3Kγ (p120γ)(h), 12 nM.

Take `Cc1ccccc1C#Cc1cncc2cc(/C=C3\SC(=O)NC3=O)oc12` [Example 454, (Z)-5-[{7-(o-Tolylethynyl)furo[3,2-c]pyridin-2-yl}methylene]thiazolidine-2,4-dione]: the IC50 turned out to be 143 nM against PI3Kδ (p110δ/p85α)(h), 1 nM against PI3Kα (p110α/p85α)(h), 466 nM against PI3K β (p110β/p85α)(h) and 7 nM against PI3Kγ (p120γ)(h).

`COc1ccc(C#Cc2cncc3cc(/C=C4\SC(=O)NC4=O)oc23)cc1OC` [Example 469, (Z)-5-([7-{(3,4-Dimethoxyphenyl)ethynyl}furo[3,2-c]pyridin-2-yl]methylene)thiazolidine-2,4-dione]: the IC50 was 37 nM at PI3Kδ (p110δ/p85α)(h), 2 nM at PI3Kα (p110α/p85α)(h), 5090 nM on PI3K β (p110β/p85α)(h) and 17 nM against PI3Kγ (p120γ)(h).

In the case of `O=C1NC(=S)S/C1=C\c1cc2cncc(C#CC3CC3)c2o1` [Example 475, (Z)-5-[{7-(Cyclopropylethynyl)furo[3,2-c]pyridin-2-yl}methylene]-2-thioxothiazolidin-4-one], the IC50 at PI3Kδ (p110δ/p85α)(h) is more than 10000 nM; against PI3Kα (p110α/p85α)(h), 68 nM; at PI3K β (p110β/p85α)(h), more than 10000 nM; against PI3Kγ (p120γ)(h) it was 10 nM.

`CCOC(C#Cc1cncc2cc(/C=C3\SC(=S)NC3=O)oc12)OCC` [Example 483, (Z)-5-[{7-(3,3-Diethoxypropyn-1-yl)furo[3,2-c]pyridin-2-yl}methylene]-2-thioxothiazolidin-4-one]: the IC50 at PI3Kδ (p110δ/p85α)(h) was 113 nM; against PI3Kα (p110α/p85α)(h) it was 23 nM; at PI3K β (p110β/p85α)(h), 184 nM; at PI3Kγ (p120γ)(h), 33 nM.

As to `COc1ccccc1C#Cc1cncc2cc(/C=C3\SC(=S)NC3=O)oc12` [Example 486, (Z)-5-([7-{(2-Methoxyphenyl)ethynyl}furo[3,2-c]pyridin-2-yl]methylene)-2-thioxothiazolidin-4-one], the IC50 was more than 10000 nM against PI3Kδ (p110δ/p85α)(h), 4 nM on PI3Kα (p110α/p85α)(h), more than 10000 nM on PI3K β (p110β/p85α)(h) and 14 nM against PI3Kγ (p120γ)(h).

For the compound `Cc1ccccc1C#Cc1cncc2cc(/C=C3\SC(=S)NC3=O)oc12` [Example 498, (Z)-2-Thioxo-5-[{7-(o-tolylethynyl)furo[3,2-c]pyridin-2-yl}methylene]thiazolidin-4-one], the IC50 against PI3Kδ (p110δ/p85α)(h) turned out to be 618 nM; at PI3Kα (p110α/p85α)(h) it was 2 nM; against PI3K β (p110β/p85α)(h), 2270 nM; against PI3Kγ (p120γ)(h), 7 nM.

`COc1ccc(C#Cc2cncc3cc(/C=C4\SC(=S)NC4=O)oc23)cc1OC` [Example 512, (Z)-5-([7-{(3,4-Dimethoxyphenyl)ethynyl}furo[3,2-c]pyridin-2-yl]methylene)-2-thioxothiazolidin-4-one]: the IC50 on PI3Kδ (p110δ/p85α)(h) is 73 nM; at PI3Kα (p110α/p85α)(h), 2 nM; against PI3K β (p110β/p85α)(h) it was 82 nM; against PI3Kγ (p120γ)(h), 17 nM.

For the compound `N#Cc1ccccc1C#Cc1cncc2cc(/C=C3\SC(=S)NC3=O)oc12` [Example 513, (Z)-2-([2-{(4-Oxo-2-thioxothiazolidin-5-ylidene)methyl}furo[3,2-c]pyridin-7-yl]ethynyl)benzonitrile], the IC50 against PI3Kδ (p110δ/p85α)(h) came out at 74 nM; against PI3Kα (p110α/p85α)(h), 4 nM; against PI3K β (p110β/p85α)(h), 715 nM; against PI3Kγ (p120γ)(h), 11 nM.

Take `O=C1NC(=O)/C(=C/c2cc3cncc(C#Cc4ccccc4C(F)(F)F)c3o2)S1` [Example 526]: the IC50 is 33 nM at PI3Kδ (p110δ/p85α)(h), 6 nM at PI3Kα (p110α/p85α)(h), 1210 nM on PI3K β (p110β/p85α)(h) and 23 nM against PI3Kγ (p120γ)(h).

In the case of `O=C1NC(=O)/C(=C/c2cc3cncc(C#Cc4ccsc4)c3o2)S1` [Example 528, (Z)-5-[{7-(Thiophen-3-ylethynyl)furo[3,2-c]pyridin-2-yl}methylene]thiazolidine-2,4-dione], the IC50 on PI3Kδ (p110δ/p85α)(h) is 92 nM; at PI3Kα (p110α/p85α)(h), 8 nM; against PI3K β (p110β/p85α)(h), 638 nM; against PI3Kγ (p120γ)(h), 24 nM.

On to `COC(=O)c1ccc(C#Cc2cncc3cc(/C=C4\SC(=O)NC4=O)oc23)cc1` [Example 532, (Z)-Methyl 4-([2-{(2,4-dioxothiazolidin-5-ylidene)methyl}furo[3,2-c]pyridin-7-yl]ethynyl)benzoate], for which the IC50 was 137 nM at PI3Kδ (p110δ/p85α)(h), 5 nM on PI3Kα (p110α/p85α)(h), 1390 nM on PI3K β (p110β/p85α)(h) and 33 nM at PI3Kγ (p120γ)(h).

In the case of `O=C1NC(=O)/C(=C/c2cc3cncc(C#Cc4ccc(OC(F)(F)F)cc4)c3o2)S1` [Example 533], the IC50 against PI3Kδ (p110δ/p85α)(h) is 2230 nM; on PI3Kα (p110α/p85α)(h) it was 14 nM; against PI3K β (p110β/p85α)(h), 3720 nM; at PI3Kγ (p120γ)(h), 37 nM.

With `O=C1NC(=O)/C(=C/c2cc3cncc(C#Cc4ccc(Cl)cc4)c3o2)S1` [Example 541, (Z)-5-([7-{(4-Chlorophenyl)ethynyl}furo[3,2-c]pyridin-2-yl]methylene)thiazolidine-2,4-dione], the IC50 on PI3Kδ (p110δ/p85α)(h) was found to be 136 nM; against PI3Kα (p110α/p85α)(h), 5 nM; against PI3K β (p110β/p85α)(h), 104 nM; against PI3Kγ (p120γ)(h), 27 nM.

With `COC(=O)c1cccc(C#Cc2cncc3cc(/C=C4\SC(=O)NC4=O)oc23)c1` [Example 542, (Z)-Methyl 3-([2-{(2,4-dioxothiazolidin-5-ylidene)methyl}furo[3,2-c]pyridin-7-yl]ethynyl)benzoate], the IC50 was 1270 nM on PI3Kδ (p110δ/p85α)(h), 3 nM against PI3Kα (p110α/p85α)(h), more than 10000 nM against PI3K β (p110β/p85α)(h) and 24 nM at PI3Kγ (p120γ)(h).

Regarding `N#Cc1ccc(C#Cc2cncc3cc(/C=C4\SC(=S)NC4=O)oc23)cc1` [Example 548, (Z)-4-([2-{(4-Oxo-2-thioxothiazolidin-5-ylidene)methyl}furo[3,2-c]pyridin-7-yl]ethynyl)benzonitrile], the IC50 amounted to 250 nM against PI3Kδ (p110δ/p85α)(h), 8 nM at PI3Kα (p110α/p85α)(h), 138 nM against PI3K β (p110β/p85α)(h) and 25 nM on PI3Kγ (p120γ)(h).

For the compound `CC(C)c1ccccc1C#Cc1cncc2cc(/C=C3\SC(=S)NC3=O)oc12` [Example 554, (Z)-5-([7-{(2-Isopropylphenyl)ethynyl}furo[3,2-c]pyridin-2-yl]methylene)-2-thioxothiazolidin-4-one], the IC50 against PI3Kδ (p110δ/p85α)(h) is more than 10000 nM; against PI3Kα (p110α/p85α)(h), 67 nM; against PI3K β (p110β/p85α)(h) it was 8620 nM; at PI3Kγ (p120γ)(h), 78 nM.

As to `O=C1NC(=S)S/C1=C\c1cc2cncc(C#Cc3ccsc3)c2o1` [Example 555, (Z)-5-[{7-(Thiophen-3-ylethynyl)furo[3,2-c]pyridin-2-yl}methylene]-2-thioxothiazolidin-4-one], the IC50 on PI3Kδ (p110δ/p85α)(h) is 120 nM; against PI3Kα (p110α/p85α)(h), 5 nM; against PI3K β (p110β/p85α)(h), 3470 nM; against PI3Kγ (p120γ)(h) it was 18 nM.

Turning to `COC(=O)c1ccccc1C#Cc1cncc2cc(/C=C3\SC(=S)NC3=O)oc12` [Example 558, (Z)-Methyl 2-([2-{(4-oxo-2-thioxothiazolidin-5-ylidene)methyl}furo[3,2-c]pyridin-7-yl]ethynyl)benzoate], the IC50 stood at 41 nM against PI3Kδ (p110δ/p85α)(h), 3 nM on PI3Kα (p110α/p85α)(h), 468 nM against PI3K β (p110β/p85α)(h) and 10 nM at PI3Kγ (p120γ)(h).

For `COC(=O)c1cccc(C#Cc2cncc3cc(/C=C4\SC(=S)NC4=O)oc23)c1` [Example 569, (Z)-Methyl 3-([2-{(4-oxo-2-thioxothiazolidin-5-ylidene)methyl}furo[3,2-c]pyridin-7-yl]ethynyl)benzoate], the IC50 on PI3Kδ (p110δ/p85α)(h) was 493 nM; on PI3Kα (p110α/p85α)(h), 1 nM; against PI3K β (p110β/p85α)(h), 5920 nM; on PI3Kγ (p120γ)(h) it was 16 nM.

Take `CN(C)S(=O)(=O)c1ccc(C#Cc2cncc3cc(/C=C4\SC(=S)NC4=O)oc23)cc1` [Example 571, (Z)—N,N-Dimethyl-4-([2-{(4-oxo-2-thioxothiazolidin-5-ylidene)methyl}furo[3,2-c]pyridin-7-yl]ethynyl)benzenesulfonamide]: the half-inhibitory concentration (IC50) against PI3Kδ (p110δ/p85α)(h) is 78 nM; at PI3Kα (p110α/p85α)(h) it was 1 nM; against PI3K β (p110β/p85α)(h), 2410 nM; against PI3Kγ (p120γ)(h), 15 nM.
